The EC50 is the concentration giving half of the maximal effect.

The test system of one series is SARS-CoV-2. Briefly: SARS-CoV-2 antiviral assay in CALU-3 cells. The series is classed as cell-based. To be noted: Severe acute respiratory syndrome coronavirus 2, medium with 10% fetal bovine serum, read-out: EC50 (same as IC50 of FIG. 4).
Series [1] can be described thus: Maximum tolerated dose in uninfected immunosuppressed mice. In kind it is in vivo, ICR mice. On the procedure:
Tafenoquine succinate powder was supplied in the form of the commercial API used to make 100 mg ARAKODA tablets [therefore it was >99.8% pure and contain no excipients]. Four dosing solutions were prepared, and the concentrations of tafenoquine succinate were adjusted based on the mean mouse weight at the start of the study in order to achieve dosing groups of 2.5, 5, 10 and 20 mg/kg tafenoquine base respectively [note that tafenoquine succinate contains 79.6% tafenoquine base].
The dosing solutions was in the form of a tafenoquine succinate suspension in the drug vehicle. A large batch [>1 liter] of the drug vehicle [0.2% v/v Tween 80 in 1% v/v methyl cellulose in sterile water] was prepared at least 96 h before the first dose was administered and kept refrigerated [4° C.]. During preparation, the batch of drug vehicle was stirred for sufficiently long to ensure a uniform composition [4 to 24 h of stirring with a magnetic stir bar may be required].
Dosing solutions were prepared no more than 72 h prior to the first dose. Tafenoquine powder was weighed out separately for each dosing solution. After weighing, tafenoquine was transferred into an appropriately sized, transparent tube [or equivalent] containing the desired volume of drug vehicle, and gently shaken to allow development of a uniform suspension without bubble formation. The tubes containing dosing solutions were stored at [4° C.] wrapped in aluminum foil until use. Prior to use, the dosing solutions were inverted gently as required to resuspend the tafenoquine and allowed to warm temperature. Use of transparent tubes allowed for visual confirmation that an even resuspension of the drug has had been achieved prior to dosing. The above resuspension procedure was conducted the first time 48 h prior to the first day of dosing to confirm there have been no preparation issues.
Mouse Strain—Outbred male ICR mice weighing ~28 grams were used. Mice were housed 5 per cage and had access to food and water ad libitum.
Immune Status—Standard neutropenic immunosuppression regimen in the PK/dose tolerability study was used, which was also used in the in vivo efficacy model. This regimen utilizes cyclophosphamide and cortisone acetate to render animals immunosuppressed prior to aerosolized inoculation. • Cyclophosphamide (25 mg/mL) was dissolved by the addition of sterile water to the vial. This was administered as a dose of 250 mg/kg two days prior to inoculation. […]
Mouse Assessment—Throughout the studies, mice were observed multiple times per day and their overall health determined. […]

The next series concerns P. falciparum. The settings on record: seven strains, three repeat assays; cited from earlier work.
For another series, the system named is Babesia. To be noted: mice; cited from earlier work.
The next series has as its system Candida guilliermondii. Briefly: Antifungal MIC (RPMI-1640 microdilution). In kind it is cell-based. To be noted: Meyerozyma guilliermondii.
A further series relates to Fusarium sp. Briefly: Antifungal MIC (RPMI-1640 microdilution). The series is classed as cell-based. A general note: In broth dilution the organism is exposed to a series of concentrations in liquid medium.
A further series deals with Curvularia sp. Briefly: Antifungal MIC (RPMI-1640 microdilution). The series is classed as cell-based.
A further series has as its system Histoplasma capsulatum. Kind of series: microbe, parasite or virus in culture. The series is classed as cell-based.
For another series, the system named is Enterococcus faecalis. Kind of series: Antibacterial MIC (broth microdilution). In kind it is cell-based.
The test system of another series is A. baumannii. Kind of series: Antibacterial MIC (broth microdilution). In kind it is cell-based. The settings on record: Acinetobacter baumannii.
Another series has as its system P. aeruginosa. Briefly: Antibacterial MIC (broth microdilution). In kind it is cell-based. To be noted: Pseudomonas aeruginosa.

Where two headings read alike, the source gives them in different places.

Turning to `COc1cc(C)c2c(Oc3cccc(C(F)(F)F)c3)c(OC)cc(NC(C)CCCN)c2n1` (centres unmarked) [Tafenoquine, N(4)-[2,6-Dimethoxy-4-methyl-5-[3-(trifluoromethyl)phenoxy]quinolin-8-yl]pentane-1,4-diamine], in the series on SARS-CoV-2, the EC50 was 8.6 µM. Further, the “mice moribund prior to the study endpoint” value is given as 2 of 21 in [1] (10 mg/kg group) and 4 of 21 in series [1] (20 mg/kg group). In [1] (2.5 and 5.0 mg/kg oral, daily), the tolerability entry was “well-tolerated”. Moreover, the “mouse weights on days 7/8 versus vehicle control” value in series [1] (higher dose groups (10 and 20 mg/kg)) is given as “these differences were not significant”. Further, the “fold more potent than primaquine (average 50% inhibitory concentrations)” value in the series with P. falciparum is listed as 7.1 fold. Besides, the “dose clearing Babesia parasitemia” value in the series with Babesia is on record as 20 mg/kg.

For `COc1cc(C)c2c(Oc3cccc(C(F)(F)F)c3)c(OC)cc(NC(C)CCCN)c2n1.O=C(O)CCC(=O)O` (centres unmarked) [Tafenoquine Succinate], the MIC50 in the series with Candida guilliermondii (read-out: MIC 50% inhibition, isolate Cgui1) was 2 µg/mL; in the series with Candida guilliermondii (read-out: MIC 50% inhibition, isolate Cgui2), 2 µg/mL; with Candida guilliermondii (read-out: MIC 50% inhibition, isolate Cgui3), 4 µg/mL; with Fusarium sp. (read-out: MIC 50% inhibition, isolate FO1), 8 µg/mL; in the series on Fusarium sp. (read-out: MIC 50% inhibition, isolate FS2) it was 16 µg/mL; with Fusarium sp. (read-out: MIC 50% inhibition, isolate FSI) it was 8 µg/mL. The MIC50 in the series on Curvularia sp. (read-out: MIC 50% inhibition, isolate Curv1) turned out to be 2 µg/mL; in the series with Histoplasma capsulatum (read-out: MIC 50% inhibition, isolate HC1), 4 µg/mL; with Histoplasma capsulatum (read-out: MIC 50% inhibition, isolate HC2) it was 2 µg/mL; in the series on Histoplasma capsulatum (read-out: MIC 50% inhibition, isolate HC3), 8 µg/mL. For the same molecule, the MIC in the series with Candida guilliermondii (read-out: MIC 100% inhibition, isolate Cgui1) was 4 µg/mL; with Candida guilliermondii (read-out: MIC 100% inhibition, isolate Cgui2), 2 µg/mL; in the series with Candida guilliermondii (read-out: MIC 100% inhibition, isolate Cgui3), 4 µg/mL; with Fusarium sp. (read-out: MIC 100% inhibition, isolate FO1) it was 16 µg/mL; in the series with Fusarium sp. (read-out: MIC 100% inhibition, isolate FS2) it was 16 µg/mL; in the series with Fusarium sp. (read-out: MIC 100% inhibition, isolate FSI) it was 16 µg/mL. The MIC was 8 µg/mL with Curvularia sp. (read-out: MIC 100% inhibition, isolate Curv1); 4 µg/mL with Histoplasma capsulatum (read-out: MIC 100% inhibition, isolate HC1); 4 µg/mL in the series with Histoplasma capsulatum (read-out: MIC 100% inhibition, isolate HC2); 8 µg/mL in the series on Histoplasma capsulatum (read-out: MIC 100% inhibition, isolate HC3); 8 µg/mL with Enterococcus faecalis (ATCC29212, isolate ATCC 29212); 8 µg/mL with Enterococcus faecalis (isolate 1768). Moreover, the MIC against A. baumannii (ATCC17978, isolate ATCC 17978) is 64 µg/mL; in the series with A. baumannii (isolate AR-88), 64 µg/mL; with A. baumannii (isolate AR-273), more than 64 µg/mL; in the series on P. aeruginosa (ATCC27853, isolate ATCC 27853) it was more than 64 µg/mL; in the series on P. aeruginosa (isolate AR-230) it was more than 64 µg/mL; in the series on P. aeruginosa (isolate J4242) it was more than 64 µg/mL.
